Assay results as given in paper PMC8161026, “Synthesis and Anticancer Activity Evaluation of 5-[2-Chloro-3-(4-nitrophenyl)-2-propenylidene]-4-thiazolidinones” (Molecules, 2021).

Experiments:
[1] = Lymphocyte viability, MTT assay; details: human
Description: (§1) Another part of our study was to determine the influence of compounds 2f, 2i, 2j, and 2h on normal human blood lymphocytes (Figure 5). […] Thus, normal blood lymphocytes are blood cells, as well as cells of leukemia cell lines, therapeutic index (TI) of compounds 2f, 2h, and 2j was calculated as GI50 (normal blood lymphocyte)/GI50 (leukemia cell line) (Table 5).
(§2) Figure 5 Human lymphocyte viability after 48 h of 2f, 2i, 2j, 2h, and Ciminalum drug exposure was estimated by MTT assay.
(§3) The assay was performed by using 3-(4,5-dimethylthiazole-2-yl)- 2,5-diphenyltetrazolium bromide (MTT). Confluent cells, cultured for 24 h with 0.1, 1, 5, 10, 20, 30, and 100 µM concentrations of studied compounds in 24-well plates were washed with PBS. MTT was dissolved in PBS, and 25 µL were added to each well. Plates were incubated for 4 h at 37 °C in 5% CO2 in an incubator. The medium with MTT was removed, and 1 mL of DMSO was added to the attached cells. Furthermore, cells were incubated for 5–10 min in RT and then 10 µl of Sorensen buffer was added to each well. The absorbance of converted dye in living cells was measured at a wavelength of 570 nm. The cell viability of breast cancer cells, gastric cancer cells, and human colon cancer cells cultured in the presence of ligands was calculated as percent of control cells.
(§4) First, 20 mL of venous blood was taken from volunteers (Ethical protocol number 2, 27 January 2019) and collected in the presence of 200 μL of undiluted fresh heparin (1/100). Sterile blood was diluted 2 times with 0.9% NaCl under the sterile conditions. Isolation of lymphocytes was performed in a density gradient of ficol-verografin using the protocol of the manufacturer (Lympoprep, NYCOMED PHARMA AS, Oslo Norway). The resulting lymphocytes were resuspended in the RPMI-1640 medium and cultured for several days (up to 10 days). To separate the lymphocytes from the monocytes, cell suspension was left for 24 h. After 24 h of culture, monocytes were attached, while lymphocytes were transferred to a fresh Falcon tube (15 mL). To stimulate the proliferation of lymphocytes, they were cultured on CD3+ antibody-coated plastic plate in the RPMI-1640 medium supplemented with 20% FBS.

[2] = system: normal human blood lymphocytes; assay: in vitro
Description: as §1, §2, §3, §4

HL-60(TB) [3] = system: HL-60(TB)
U251 = U251 (CNS Cancer), 48 h, SRB
HL-60(TB) [4] = assay: cells; details: Homo sapiens, HL-60, 48 h
786-0 [5] = details: 786-0 (Renal Cancer), 48 h, SRB
SN12C [6] = details: SN12C (Renal Cancer), 48 h, SRB
PC-3 = PC-3 (Prostate Cancer), 48 h, SRB
DU-145 = DU-145 (Prostate Cancer), 48 h, SRB
SR = assay: cells; details: Homo sapiens, 48 h
NCI-H23 = assay: cells; details: Homo sapiens, NCI-H23, 48 h
SW-620 = assay: cells; details: Homo sapiens, SW-620, 48 h
786-0 [7] = assay: cells; details: Homo sapiens, 786-0, 48 h
SN12C [8] = assay: cells; details: Homo sapiens, 48 h
T-47D = assay: cells; details: Homo sapiens, T47D, 48 h
NCI-322M = assay: NCI DTP 60 cell line screen, SRB; details: 48 h
HCT-15 = assay: NCI DTP 60 cell line screen, SRB
HT-29 = assay: NCI DTP 60 cell line screen, SRB
SNB-19 = assay: NCI DTP 60 cell line screen, SRB
M14 = assay: NCI DTP 60 cell line screen, SRB
IGROV1 = assay: NCI DTP 60 cell line screen, SRB
OVCAR-8 = assay: NCI DTP 60 cell line screen, SRB

SMILES: O=C(O)CCN1C(=O)/C(=C/C(Cl)=C/c2ccc([N+](=O)[O-])cc2)SC1=S [Compound 2h, 3-{5-[(Z,2Z)-2-Chloro-3-(4-nitrophenyl)-2-propenylidene]-4-oxo-2-thioxothiazolidin-3-yl}propanoic acid]
- GI50 at 48 h [1]: 54500 nM
- toxicity toward normal human blood lymphocytes [2]: low toxicity
- TI (Therapeutic Index) (HL-60(TB) [3]; GI50 (normal blood lymphocyte)/GI50 (HL-60(TB))): 157.18
- TGI (HL-60(TB) [3]; HL-60(TB) (Leukemia), 48 h, SRB): 1870 nM
- TGI (U251): 2000 nM
- GI50 (HL-60(TB) [4]): 347 nM
- CC50 (HL-60(TB) [4]; read-out: LC50): > 100000 nM
- TGI (786-0 [5]): 2470 nM
- TGI (SN12C [6]): 2990 nM
- TGI (PC-3): 13700 nM
- TGI (DU-145): 3480 nM
- GI50 (SR): < 10 nM
- CC50 (SR; read-out: LC50): > 100000 nM
- GI50 (NCI-H23): 1440 nM
- CC50 (NCI-H23; read-out: LC50): 7190 nM
- GI50 (SW-620): < 10 nM
- CC50 (SW-620; read-out: LC50): > 100000 nM
- GI50 (786-0 [7]): 1130 nM
- CC50 (786-0 [7]; read-out: LC50): 5420 nM
- GI50 (SN12C [8]): 1050 nM
- CC50 (SN12C [8]; read-out: LC50): 8480 nM
- GI50 (T-47D): 363 nM
- CC50 (T-47D; read-out: LC50): > 100000 nM
- GI50 (NCI-322M; Homo sapiens, NCI-322M): 2830 nM
- CC50 (NCI-322M; Homo sapiens, NCI-322M, read-out: LC50): 63400 nM
- TGI (NCI-322M; NCI-322M (Non-Small Cell Lung Cancer), SRB): 10900 nM
- TGI (HCT-15; HCT-15 (Colon Cancer), 48 h, SRB): 2960 nM
- GI50 (HCT-15; Homo sapiens, HCT-15, 48 h): 230 nM
- CC50 (HCT-15; Homo sapiens, HCT-15, 48 h, read-out: LC50): > 100000 nM
- TGI (HT-29; HT-29 (Colon Cancer), 48 h, SRB): 2770 nM
- GI50 (HT-29; Homo sapiens, HT-29, 48 h): 1250 nM
- CC50 (HT-29; Homo sapiens, HT-29, 48 h, read-out: LC50): > 100000 nM
- GI50 (SNB-19; Homo sapiens, SNB-19, 48 h): 658 nM
- CC50 (SNB-19; Homo sapiens, SNB-19, 48 h, read-out: LC50): 83700 nM
- TGI (SNB-19; SNB-19 (CNS Cancer), 48 h, SRB): 26300 nM
- GI50 (M14; Homo sapiens, M14, 48 h): 1660 nM
- CC50 (M14; Homo sapiens, M14, 48 h, read-out: LC50): 7740 nM
- TGI (M14; M14 (Melanoma), 48 h, SRB): 3580 nM
- GI50 (IGROV1; Homo sapiens, IGROV-1, 48 h): 794 nM
- CC50 (IGROV1; Homo sapiens, IGROV-1, 48 h, read-out: LC50): 43100 nM
- TGI (IGROV1; IGROV1 (Ovarian Cancer), 48 h, SRB): 3680 nM
- GI50 (OVCAR-8; Homo sapiens, OVCAR-8, 48 h): 244 nM
- CC50 (OVCAR-8; Homo sapiens, OVCAR-8, 48 h, read-out: LC50): > 100000 nM
- TGI (OVCAR-8; OVCAR-8 (Ovarian Cancer), 48 h, SRB): 11500 nM
